How the values were obtained:
[1] = molecular target: T1, human recombinant adrenergic α1D receptor (Homo sapiens, UniProt P25100); experiment: Adrenergic α1D radioligand binding ([3H]Prozosin); conditions: percent inhibition of specific binding, compound at 1 μM; for inhibition at 1 µM: read-out: Inhibition of ligand binding, Adrenergic α1D
T1 construct: expressed in transfected cells; host or cells: human embryonic kidney (HEK-293) cells
T1 sequence (P25100 1-572): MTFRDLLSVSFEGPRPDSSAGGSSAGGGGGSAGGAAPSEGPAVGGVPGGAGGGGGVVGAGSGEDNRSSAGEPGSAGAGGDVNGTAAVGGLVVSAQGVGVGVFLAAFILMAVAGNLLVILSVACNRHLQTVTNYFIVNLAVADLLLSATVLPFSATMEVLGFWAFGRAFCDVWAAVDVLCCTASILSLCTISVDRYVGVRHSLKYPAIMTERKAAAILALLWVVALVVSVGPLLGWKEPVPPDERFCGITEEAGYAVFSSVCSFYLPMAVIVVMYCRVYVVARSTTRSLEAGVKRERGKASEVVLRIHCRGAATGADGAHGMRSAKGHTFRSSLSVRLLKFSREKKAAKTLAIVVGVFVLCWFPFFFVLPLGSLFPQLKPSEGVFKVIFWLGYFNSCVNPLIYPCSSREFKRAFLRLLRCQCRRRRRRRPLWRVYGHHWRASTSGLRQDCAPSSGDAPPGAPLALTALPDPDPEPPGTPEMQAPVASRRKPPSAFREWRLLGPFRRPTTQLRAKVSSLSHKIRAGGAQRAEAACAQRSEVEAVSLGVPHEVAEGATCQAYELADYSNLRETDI
Protocol: Compounds of invention were incubated with 0.6 nM [^3H]Prozosin for 60 min. at 25° C. Non-specific binding was estimated in the presence of 10 μM phentolamine. Receptor proteins were filtered and washed, the filters were then counted to determine [^3H]Prozosin specifically bound. Compounds were screened at 1 μM or lower, using 1% DMSO as vehicle. Biochemical assay results are presented as the percent inhibition of specific binding in Table 9.

[2] = molecular target: human dopamine D2L receptor (Homo sapiens, UniProt P14416); experiment: Dopamine D2L radioligand binding ([3H]Spiperone); conditions: percent inhibition of specific binding, compound at 1 μM; for Inhibition of ligand binding, Dopamine D2L: 1 µM; for inhibition at 1 µM: read-out: Inhibition of ligand binding, Dopamine D2L
Sequence of human dopamine D2L receptor (P14416 whole entry): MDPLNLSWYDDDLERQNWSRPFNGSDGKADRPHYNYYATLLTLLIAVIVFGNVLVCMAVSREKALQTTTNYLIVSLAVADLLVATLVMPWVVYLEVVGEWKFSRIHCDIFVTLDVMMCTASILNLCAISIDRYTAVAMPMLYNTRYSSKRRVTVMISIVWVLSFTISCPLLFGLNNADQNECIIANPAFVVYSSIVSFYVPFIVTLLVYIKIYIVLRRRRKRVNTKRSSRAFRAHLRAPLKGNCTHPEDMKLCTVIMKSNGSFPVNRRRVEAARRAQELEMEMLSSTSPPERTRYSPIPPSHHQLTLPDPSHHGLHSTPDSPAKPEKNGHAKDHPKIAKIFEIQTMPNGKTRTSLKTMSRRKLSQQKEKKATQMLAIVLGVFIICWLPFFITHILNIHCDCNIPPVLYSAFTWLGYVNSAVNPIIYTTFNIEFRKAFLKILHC
Excerpt: Non-specific binding was estimated in the presence of […] Haloperidol. Receptor proteins were filtered and washed, the filters were then counted to determine [^3H]Spiperone specifically bound. […] Biochemical assay results are presented as the percent inhibition of specific binding in Table 9.

[3] = molecular target: T2, human recombinant serotonin (5-Hydroxytryptamine) 5-HT2C receptor (Homo sapiens, UniProt P28335); experiment: Serotonin 5-HT2C radioligand binding ([3H]Mesulergine); conditions: for inhibition at 0.1 µM: compound at 0.1 μM; for inhibition at 0.1 µM / inhibition at 1 µM: read-out: Inhibition of ligand binding, Serotonin 5-HT2C (percent inhibition of specific binding)
T2 construct: expressed in transfected cells; host or cells: Chinese hamster ovary (CHO-K1) cells
T2 sequence (P28335 33-458): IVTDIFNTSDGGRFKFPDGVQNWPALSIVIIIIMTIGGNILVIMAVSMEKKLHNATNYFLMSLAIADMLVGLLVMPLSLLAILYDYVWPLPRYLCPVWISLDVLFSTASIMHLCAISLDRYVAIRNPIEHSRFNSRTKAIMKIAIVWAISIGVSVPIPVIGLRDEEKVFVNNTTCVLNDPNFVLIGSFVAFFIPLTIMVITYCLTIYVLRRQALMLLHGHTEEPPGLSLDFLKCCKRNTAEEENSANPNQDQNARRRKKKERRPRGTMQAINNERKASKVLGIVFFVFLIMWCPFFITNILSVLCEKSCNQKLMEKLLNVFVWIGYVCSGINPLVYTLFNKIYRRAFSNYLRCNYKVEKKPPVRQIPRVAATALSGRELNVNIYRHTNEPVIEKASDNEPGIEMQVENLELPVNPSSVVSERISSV
How it was run: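 Compounds tested at 1 μM or lower (1% DMSO vehicle) for displacement of 1 nM [3H]Mesulergine over 60 min at 25° C. Specific binding determined by filtration counting, with 1 μM Mianserin defining non-specific binding; values are percent inhibition.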

[4] = molecular target: T3, human recombinant serotonin (5-Hydroxytryptamine) 5-HT6 receptor (Homo sapiens, UniProt P50406); experiment: Serotonin 5-HT6 radioligand binding ([3H]LSD); conditions: for inhibition at 0.1 µM: compound at 0.1 μM; for inhibition at 0.1 µM / inhibition at 1 µM: read-out: Inhibition of ligand binding, Serotonin 5-HT6 (percent inhibition of specific binding)
T3 construct: expressed in transfected cells; host or cells: human HeLa cells
T3 sequence (P50406 whole entry): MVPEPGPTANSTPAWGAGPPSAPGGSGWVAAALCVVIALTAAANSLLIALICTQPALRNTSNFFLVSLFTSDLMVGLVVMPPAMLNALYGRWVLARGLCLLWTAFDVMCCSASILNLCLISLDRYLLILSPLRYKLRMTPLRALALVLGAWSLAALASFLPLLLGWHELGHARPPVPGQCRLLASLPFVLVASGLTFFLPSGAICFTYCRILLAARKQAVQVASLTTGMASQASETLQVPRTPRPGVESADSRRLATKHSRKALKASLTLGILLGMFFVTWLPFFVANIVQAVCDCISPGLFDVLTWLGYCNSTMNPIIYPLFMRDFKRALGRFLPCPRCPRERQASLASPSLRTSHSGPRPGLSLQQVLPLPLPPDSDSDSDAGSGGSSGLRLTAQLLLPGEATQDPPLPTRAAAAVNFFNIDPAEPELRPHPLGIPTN
Protocol: Compounds of the invention were incubated with 1.5 nM [3H]Lysergic acid diethylamide (LSD) for 120 min. at 37° C. […] Receptor proteins were filtered and washed, the filters were then counted to determine [3H]LSD specifically bound. Compounds were screened at 1 μM or lower, using 1% DMSO as vehicle. Biochemical assay results are presented as the percent inhibition of specific binding in Table 10.

[5] = molecular target: human recombinant serotonin (5-Hydroxytryptamine) 5-HT7 receptor (Homo sapiens, UniProt P34969); experiment: Serotonin 5-HT7 radioligand binding ([3H]LSD); conditions: compound at 1 μM; for inhibition at 1 µM: read-out: Inhibition of ligand binding, Serotonin 5-HT7 (percent inhibition of specific binding)
Sequence of human recombinant serotonin (5-Hydroxytryptamine) 5-HT7 receptor (P34969 whole entry): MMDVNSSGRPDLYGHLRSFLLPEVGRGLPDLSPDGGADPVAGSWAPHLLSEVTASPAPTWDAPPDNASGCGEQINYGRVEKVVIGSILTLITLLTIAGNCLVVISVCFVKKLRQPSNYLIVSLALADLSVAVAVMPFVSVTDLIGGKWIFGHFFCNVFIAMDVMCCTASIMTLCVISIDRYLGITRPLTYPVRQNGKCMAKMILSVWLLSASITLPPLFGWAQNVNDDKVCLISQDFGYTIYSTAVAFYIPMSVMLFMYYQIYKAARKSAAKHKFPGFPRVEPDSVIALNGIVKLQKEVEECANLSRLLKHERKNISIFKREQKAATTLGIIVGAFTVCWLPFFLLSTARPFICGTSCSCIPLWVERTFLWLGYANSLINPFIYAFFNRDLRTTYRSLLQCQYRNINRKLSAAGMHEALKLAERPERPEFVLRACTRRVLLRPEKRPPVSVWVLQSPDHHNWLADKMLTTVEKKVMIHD
Excerpt: Receptor proteins were filtered and washed, the filters were then counted to determine [^3H]LSD specifically bound.

Row | Structure (SMILES) | inhibition at 1 µM [1] [%] | Inhibition of ligand binding, Dopamine D2L [2] [%] | inhibition at 1 µM [2] [%] | inhibition at 0.1 µM [3] [%] | inhibition at 1 µM ([3]; compound at 1 μM) [%] | inhibition at 0.1 µM [4] [%] | inhibition at 1 µM ([4]; compound at 1 μM) [%] | inhibition at 1 µM [5] [%] | Inhibition of ligand binding, Adrenergic α1D ([1]; 1 µM) [%] | Inhibition of ligand binding, Serotonin 5-HT2C (percent inhibition of specific binding) ([3]; compound at 1 μM, 1 µM) [%] | Inhibition of ligand binding, Serotonin 5-HT6 (percent inhibition of specific binding) ([4]; compound at 1 μM, 1 µM) [%] | Inhibition of ligand binding, Serotonin 5-HT7 (percent inhibition of specific binding) ([5]; 1 µM) [%]
1 | C/C(=C\n1c2c(c3ccccc31)CN(C)CC2)c1ccc(F)cc1 [Compound 205, (E)-5-(2-(4-fluorophenyl)prop-1-enyl)-2-methyl-2,3,4,5-tetrahydro-1H-pyrido[4,3-b]indole] | 90 | 99 | 98 | 96 | 100 | 99 | 103 | 102 | – | – | – | –
2 | CN1CCc2c(c3cc(Cl)ccc3n2/C=C(/c2ccc(F)cc2)C2CCC2)C1 [Compound 206, (E)-8-chloro-5-(2-cyclobutyl-2-(4-fluorophenyl)vinyl)-2-methyl-2,3,4,5-tetrahydro-1H-pyrido[4,3-b]indole] | 102 | – | 76 | – | 98 | – | 102 | 93 | – | – | – | –
3 | CNC(=O)C/C(=C\n1c2c(c3cc(C)ccc31)CN(C)CC2)c1ccc(F)cc1 [Compound 207, (E)-4-(2,8-dimethyl-3,4-dihydro-1H-pyrido[4,3-b]indol-5(2H)-yl)-3-(4-fluorophenyl)-N-methylbut-3-enamide] | 100 | – | 12 | – | 97 | – | 58 | 92 | – | – | – | –
4 | CCCC/C(=C\n1c2c(c3cc(Cl)ccc31)CN(C)CC2)c1ccc(F)cc1 [Compound 208, (E)-8-chloro-5-(2-(4-fluorophenyl)hex-1-enyl)-2-methyl-2,3,4,5-tetrahydro-1H-pyrido[4,3-b]indole] | 89 | – | 78 | – | 102 | – | 103 | 100 | – | – | – | –
5 | Cc1ccc2c(c1)c1c(n2/C=C(\CC(=O)O)c2ccc(F)cc2)CCN(C)C1 [Compound 209, (E)-4-(2,8-dimethyl-3,4-dihydro-1H-pyrido[4,3-b]indol-5(2H)-yl)-3-(4-fluorophenyl)but-3-enoic acid] | 21 | – | 7 | – | 95 | – | 41 | 36 | – | – | – | –
6 | C/C(=C\n1c2c(c3cc(Cl)ccc31)CN(C)CC2)c1ccc(Cl)cc1Cl [Compound 210, (E)-8-chloro-5-(2-(2,4-dichlorophenyl)prop-1-enyl)-2-methyl-2,3,4,5-tetrahydro-1H-pyrido[4,3-b]indole] | – | 52 | – | – | – | – | – | – | 17 | 99 | 76 | 65
7 | C/C(=C\n1c2c(c3cc(C)ccc31)CN(C)CC2)c1ccc(Cl)cc1 [Compound 211, (E)-5-(2-(4-chlorophenyl)prop-1-enyl)-2,8-dimethyl-2,3,4,5-tetrahydro-1H-pyrido[4,3-b]indole] | 96 | 49 | 39 | 98 | 107 | 60 | 98 | 101 | – | – | – | –
8 | C/C(=C/n1c2c(c3cc(Cl)ccc31)CN(C)CC2)c1ccccc1F [Compound 212, (Z)-8-chloro-5-(2-(2-fluorophenyl)prop-1-enyl)-2-methyl-2,3,4,5-tetrahydro-1H-pyrido[4,3-b]indole] | 78 | – | 32 | – | 104 | – | 97 | 98 | – | – | – | –
9 | C/C(=C\n1c2c(c3cc(Cl)ccc31)CN(C)CC2)c1ccccc1F [Compound 213, (E)-8-chloro-5-(2-(2-fluorophenyl)prop-1-enyl)-2-methyl-2,3,4,5-tetrahydro-1H-pyrido[4,3-b]indole] | 76 | – | 76 | – | 102 | – | 100 | 100 | – | – | – | –

From patent US8906925B2, “Pyrido[4,3-B]indoles containing rigid moieties” (Medivation Technologies, Inc., priority 2008, dated 2014)
